The values below are quoted from earlier work in patent US20250074868A1, “POLYHYDROXYLATED PHOTOINITIATORS” (Arkema France, priority 2021, published 2025).

Each structure is given as a SMILES string.

On to `CC(C)(O)C(=O)c1ccc(OCCO)cc1` [SpeedCure 2959], for which the water solubility was 0.5 wt %.
